Measured values: ChEMBL document CHEMBL1201862, “PubChem BioAssay data set” (2004)
The source made the active and inactive calls.

Tests used:
[1] = target: T1, Leucine aminopeptidase (Plasmodium falciparum 3D7, UniProt Q8IL11); experiment: P. falciparum M17LAP inhibitors, primary screen, biochemical, fluorogenic H-Leu-NHMec substrate, 1536-well (AID 1619); format: functional
T1 sequence (Q8IL11 whole entry): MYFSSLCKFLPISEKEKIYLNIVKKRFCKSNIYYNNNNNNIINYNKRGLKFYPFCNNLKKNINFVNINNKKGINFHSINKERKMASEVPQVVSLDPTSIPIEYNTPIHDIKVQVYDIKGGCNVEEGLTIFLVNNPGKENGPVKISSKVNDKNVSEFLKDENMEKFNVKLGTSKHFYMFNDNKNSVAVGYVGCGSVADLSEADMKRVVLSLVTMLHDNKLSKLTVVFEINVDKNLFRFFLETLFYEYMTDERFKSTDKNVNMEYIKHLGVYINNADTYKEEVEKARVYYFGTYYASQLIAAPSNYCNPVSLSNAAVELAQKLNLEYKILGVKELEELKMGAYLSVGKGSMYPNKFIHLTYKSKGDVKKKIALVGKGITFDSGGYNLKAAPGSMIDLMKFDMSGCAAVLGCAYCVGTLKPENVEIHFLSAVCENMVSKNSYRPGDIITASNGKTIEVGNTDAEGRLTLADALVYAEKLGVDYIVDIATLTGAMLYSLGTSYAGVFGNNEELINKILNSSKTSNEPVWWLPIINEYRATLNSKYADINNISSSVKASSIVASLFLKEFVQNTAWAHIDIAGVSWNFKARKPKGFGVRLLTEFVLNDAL

[2] = target: Induced myeloid leukemia cell differentiation protein Mcl-1 (Homo sapiens, UniProt Q07820); format: functional
Induced myeloid leukemia cell differentiation protein Mcl-1, sequence (Q07820 whole entry): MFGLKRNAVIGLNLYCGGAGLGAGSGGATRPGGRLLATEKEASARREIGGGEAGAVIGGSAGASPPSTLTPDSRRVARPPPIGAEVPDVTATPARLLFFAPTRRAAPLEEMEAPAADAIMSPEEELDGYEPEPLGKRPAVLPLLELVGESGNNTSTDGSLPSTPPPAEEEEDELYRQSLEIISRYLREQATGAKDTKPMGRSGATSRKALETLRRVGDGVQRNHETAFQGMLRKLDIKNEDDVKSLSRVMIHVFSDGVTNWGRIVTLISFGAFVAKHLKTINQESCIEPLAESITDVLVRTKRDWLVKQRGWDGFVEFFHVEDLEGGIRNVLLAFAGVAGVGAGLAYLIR

[3] = tested on: H9c2; experiment: cells; format: functional, cell-based; details: Rattus norvegicus, H9c2, Myocardium;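 further: confirmatory concentration-response retest of ultra-high-throughput screening hits for modulation of myocardial damage; cell death induced by hydrogen peroxide oxidative stress; compound pretreatment for 60 min then peroxide exposure for 2 h; potency is for protecting the cells against peroxide damage rather than for killing them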
[4] = target: T2, Mannose-6-phosphate isomerase (Homo sapiens, UniProt P34949); experiment: human PMI inhibitors, high substrate, primary screen, biochemical, fluorescence intensity, high mannose 6-phosphate (AID 1220)
T2 sequence (P34949 whole entry): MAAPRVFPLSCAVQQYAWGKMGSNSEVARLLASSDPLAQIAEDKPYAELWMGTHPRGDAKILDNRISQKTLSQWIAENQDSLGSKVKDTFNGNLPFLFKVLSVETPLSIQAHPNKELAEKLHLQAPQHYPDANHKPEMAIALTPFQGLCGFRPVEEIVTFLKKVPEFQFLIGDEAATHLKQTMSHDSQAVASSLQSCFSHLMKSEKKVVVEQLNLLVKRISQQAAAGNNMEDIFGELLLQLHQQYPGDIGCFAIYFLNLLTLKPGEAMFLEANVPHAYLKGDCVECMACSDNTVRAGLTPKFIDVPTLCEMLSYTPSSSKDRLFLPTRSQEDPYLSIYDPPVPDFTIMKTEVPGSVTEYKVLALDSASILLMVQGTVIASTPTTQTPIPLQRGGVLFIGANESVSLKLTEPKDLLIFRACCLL

[5] = cytotoxicity in HEK-293T cells, dose response, cytotoxicity control for BCR NF-kB inhibitor project, luminescence, B-cell screen hits (AID 489021); format: functional, cell-based;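 further: HEK-293T cells carrying an NF-kB luciferase reporter; cells exposed to compound for about 14 hours before viability readout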
[6] = target: T3, Replicative DNA helicase DnaB (Mycobacterium tuberculosis, UniProt P9WMR3); experiment: DnaB intein splicing inhibitors, dose response, biochemical, cell-free fluorescence (AID 449749); format: functional
T3 sequence (P9WMR3 whole entry): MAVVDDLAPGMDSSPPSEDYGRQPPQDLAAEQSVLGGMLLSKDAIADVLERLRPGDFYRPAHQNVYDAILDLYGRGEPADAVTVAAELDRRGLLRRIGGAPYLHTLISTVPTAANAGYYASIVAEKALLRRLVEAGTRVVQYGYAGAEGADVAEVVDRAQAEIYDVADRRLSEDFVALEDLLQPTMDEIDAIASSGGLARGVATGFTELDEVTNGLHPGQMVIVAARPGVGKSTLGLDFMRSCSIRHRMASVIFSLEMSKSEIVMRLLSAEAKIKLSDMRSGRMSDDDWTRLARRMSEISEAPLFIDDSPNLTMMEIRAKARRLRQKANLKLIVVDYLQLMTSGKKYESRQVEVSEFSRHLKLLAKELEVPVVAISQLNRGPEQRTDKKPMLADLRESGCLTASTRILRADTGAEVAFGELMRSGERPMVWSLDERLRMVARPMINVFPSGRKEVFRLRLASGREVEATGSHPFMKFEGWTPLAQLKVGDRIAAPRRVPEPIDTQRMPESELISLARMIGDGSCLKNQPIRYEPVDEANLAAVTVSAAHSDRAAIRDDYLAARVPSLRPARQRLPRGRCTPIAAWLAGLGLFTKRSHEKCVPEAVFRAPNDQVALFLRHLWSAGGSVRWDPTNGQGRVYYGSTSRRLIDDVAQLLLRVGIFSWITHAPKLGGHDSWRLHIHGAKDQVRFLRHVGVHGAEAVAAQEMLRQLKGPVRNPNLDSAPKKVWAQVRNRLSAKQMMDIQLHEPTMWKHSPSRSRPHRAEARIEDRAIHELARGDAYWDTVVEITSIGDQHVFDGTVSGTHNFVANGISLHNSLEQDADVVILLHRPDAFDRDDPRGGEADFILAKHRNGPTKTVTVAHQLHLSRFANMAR

[7] = target: T4, Ubiquitin-conjugating enzyme E2 N (Homo sapiens, UniProt P61088); format: functional;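 further: Dose-response confirmation in a TR-FRET assay detecting UBC13-driven polyubiquitin chain formation, inhibition measured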
T4 sequence (P61088 whole entry): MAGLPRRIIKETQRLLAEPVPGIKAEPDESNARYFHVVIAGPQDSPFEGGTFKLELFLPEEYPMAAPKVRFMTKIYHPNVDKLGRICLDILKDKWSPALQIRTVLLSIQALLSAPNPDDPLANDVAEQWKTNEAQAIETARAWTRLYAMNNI

[8] = target: T5, Protein RecA (Mycobacterium tuberculosis, UniProt P9WHJ3); experiment: Fluorescence Cell-Free Homogeneous Dose Retest to Identify Inhibitors of RecA-Intein Splicing Activity. [Related pubchem assays (depositor defined):AID2097, AID2223, AID489010, AID492950]; format: functional
T5 sequence (P9WHJ3 whole entry): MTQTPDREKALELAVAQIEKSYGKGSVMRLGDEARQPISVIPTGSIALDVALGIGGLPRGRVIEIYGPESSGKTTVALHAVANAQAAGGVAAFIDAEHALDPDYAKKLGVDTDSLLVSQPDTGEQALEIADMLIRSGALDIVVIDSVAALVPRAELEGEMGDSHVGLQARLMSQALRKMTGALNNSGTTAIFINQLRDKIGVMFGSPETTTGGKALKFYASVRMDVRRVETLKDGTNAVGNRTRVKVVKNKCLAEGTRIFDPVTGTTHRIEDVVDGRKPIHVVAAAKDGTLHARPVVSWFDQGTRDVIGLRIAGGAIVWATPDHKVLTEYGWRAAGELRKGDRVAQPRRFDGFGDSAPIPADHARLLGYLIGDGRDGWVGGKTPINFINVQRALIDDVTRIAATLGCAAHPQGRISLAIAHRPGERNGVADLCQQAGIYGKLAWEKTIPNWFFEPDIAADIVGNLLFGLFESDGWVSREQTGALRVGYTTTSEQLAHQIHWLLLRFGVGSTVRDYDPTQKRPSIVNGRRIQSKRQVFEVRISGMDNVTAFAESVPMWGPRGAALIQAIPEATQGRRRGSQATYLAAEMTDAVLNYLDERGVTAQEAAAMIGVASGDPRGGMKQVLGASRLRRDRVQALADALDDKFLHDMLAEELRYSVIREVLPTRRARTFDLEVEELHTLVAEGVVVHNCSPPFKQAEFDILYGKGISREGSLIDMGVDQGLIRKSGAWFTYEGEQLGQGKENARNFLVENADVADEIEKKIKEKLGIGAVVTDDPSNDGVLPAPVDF

[9] = target: T6, Polyadenylate-binding protein 1 (Homo sapiens, UniProt P11940); experiment: PABP1 MLLE–PAM2 binding inhibitor potency, dose response, biochemical, fluorescence polarization, FITC-PAM2 peptide (AID 602259); format: functional; details: read-out: IC50_Mean
T6 sequence (P11940 whole entry): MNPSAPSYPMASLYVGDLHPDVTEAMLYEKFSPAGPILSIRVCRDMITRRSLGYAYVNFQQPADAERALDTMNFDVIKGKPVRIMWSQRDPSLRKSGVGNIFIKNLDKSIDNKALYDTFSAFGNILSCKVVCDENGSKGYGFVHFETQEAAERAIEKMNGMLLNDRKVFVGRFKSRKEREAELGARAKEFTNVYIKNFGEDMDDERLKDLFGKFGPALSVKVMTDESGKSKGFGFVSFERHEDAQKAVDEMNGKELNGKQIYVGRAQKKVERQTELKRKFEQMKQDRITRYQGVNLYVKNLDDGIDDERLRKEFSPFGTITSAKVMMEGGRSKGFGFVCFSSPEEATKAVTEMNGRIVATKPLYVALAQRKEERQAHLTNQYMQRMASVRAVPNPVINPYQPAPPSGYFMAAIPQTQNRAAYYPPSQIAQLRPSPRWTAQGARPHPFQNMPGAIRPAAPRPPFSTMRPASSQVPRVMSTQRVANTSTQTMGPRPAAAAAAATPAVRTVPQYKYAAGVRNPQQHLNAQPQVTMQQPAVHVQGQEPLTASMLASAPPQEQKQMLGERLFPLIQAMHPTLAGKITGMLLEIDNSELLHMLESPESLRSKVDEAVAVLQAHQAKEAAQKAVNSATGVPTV

[10] = target: T6, Polyadenylate-binding protein 1; experiment: PABP1 MLLE–PAM2 interaction inhibitors, dose response, miRNA deadenylation inhibitor project, biochemical, fluorescence polarization, Cy5-PAM2 peptide, secondary (AID 602260); format: functional; details: read-out: IC50_Mean
[11] = target: T7, Fatty acid synthase (Homo sapiens, UniProt P49327); experiment: FAS thioesterase domain inhibitors, dose response, biochemical, kinetic fluorescence intensity (AID 624326); format: functional;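 further: rate of fluorescence rise from hydrolysis of a fluorogenic O-methyl fluorescein ester substrate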
T7 sequence (P49327 whole entry, the tested form may be a part): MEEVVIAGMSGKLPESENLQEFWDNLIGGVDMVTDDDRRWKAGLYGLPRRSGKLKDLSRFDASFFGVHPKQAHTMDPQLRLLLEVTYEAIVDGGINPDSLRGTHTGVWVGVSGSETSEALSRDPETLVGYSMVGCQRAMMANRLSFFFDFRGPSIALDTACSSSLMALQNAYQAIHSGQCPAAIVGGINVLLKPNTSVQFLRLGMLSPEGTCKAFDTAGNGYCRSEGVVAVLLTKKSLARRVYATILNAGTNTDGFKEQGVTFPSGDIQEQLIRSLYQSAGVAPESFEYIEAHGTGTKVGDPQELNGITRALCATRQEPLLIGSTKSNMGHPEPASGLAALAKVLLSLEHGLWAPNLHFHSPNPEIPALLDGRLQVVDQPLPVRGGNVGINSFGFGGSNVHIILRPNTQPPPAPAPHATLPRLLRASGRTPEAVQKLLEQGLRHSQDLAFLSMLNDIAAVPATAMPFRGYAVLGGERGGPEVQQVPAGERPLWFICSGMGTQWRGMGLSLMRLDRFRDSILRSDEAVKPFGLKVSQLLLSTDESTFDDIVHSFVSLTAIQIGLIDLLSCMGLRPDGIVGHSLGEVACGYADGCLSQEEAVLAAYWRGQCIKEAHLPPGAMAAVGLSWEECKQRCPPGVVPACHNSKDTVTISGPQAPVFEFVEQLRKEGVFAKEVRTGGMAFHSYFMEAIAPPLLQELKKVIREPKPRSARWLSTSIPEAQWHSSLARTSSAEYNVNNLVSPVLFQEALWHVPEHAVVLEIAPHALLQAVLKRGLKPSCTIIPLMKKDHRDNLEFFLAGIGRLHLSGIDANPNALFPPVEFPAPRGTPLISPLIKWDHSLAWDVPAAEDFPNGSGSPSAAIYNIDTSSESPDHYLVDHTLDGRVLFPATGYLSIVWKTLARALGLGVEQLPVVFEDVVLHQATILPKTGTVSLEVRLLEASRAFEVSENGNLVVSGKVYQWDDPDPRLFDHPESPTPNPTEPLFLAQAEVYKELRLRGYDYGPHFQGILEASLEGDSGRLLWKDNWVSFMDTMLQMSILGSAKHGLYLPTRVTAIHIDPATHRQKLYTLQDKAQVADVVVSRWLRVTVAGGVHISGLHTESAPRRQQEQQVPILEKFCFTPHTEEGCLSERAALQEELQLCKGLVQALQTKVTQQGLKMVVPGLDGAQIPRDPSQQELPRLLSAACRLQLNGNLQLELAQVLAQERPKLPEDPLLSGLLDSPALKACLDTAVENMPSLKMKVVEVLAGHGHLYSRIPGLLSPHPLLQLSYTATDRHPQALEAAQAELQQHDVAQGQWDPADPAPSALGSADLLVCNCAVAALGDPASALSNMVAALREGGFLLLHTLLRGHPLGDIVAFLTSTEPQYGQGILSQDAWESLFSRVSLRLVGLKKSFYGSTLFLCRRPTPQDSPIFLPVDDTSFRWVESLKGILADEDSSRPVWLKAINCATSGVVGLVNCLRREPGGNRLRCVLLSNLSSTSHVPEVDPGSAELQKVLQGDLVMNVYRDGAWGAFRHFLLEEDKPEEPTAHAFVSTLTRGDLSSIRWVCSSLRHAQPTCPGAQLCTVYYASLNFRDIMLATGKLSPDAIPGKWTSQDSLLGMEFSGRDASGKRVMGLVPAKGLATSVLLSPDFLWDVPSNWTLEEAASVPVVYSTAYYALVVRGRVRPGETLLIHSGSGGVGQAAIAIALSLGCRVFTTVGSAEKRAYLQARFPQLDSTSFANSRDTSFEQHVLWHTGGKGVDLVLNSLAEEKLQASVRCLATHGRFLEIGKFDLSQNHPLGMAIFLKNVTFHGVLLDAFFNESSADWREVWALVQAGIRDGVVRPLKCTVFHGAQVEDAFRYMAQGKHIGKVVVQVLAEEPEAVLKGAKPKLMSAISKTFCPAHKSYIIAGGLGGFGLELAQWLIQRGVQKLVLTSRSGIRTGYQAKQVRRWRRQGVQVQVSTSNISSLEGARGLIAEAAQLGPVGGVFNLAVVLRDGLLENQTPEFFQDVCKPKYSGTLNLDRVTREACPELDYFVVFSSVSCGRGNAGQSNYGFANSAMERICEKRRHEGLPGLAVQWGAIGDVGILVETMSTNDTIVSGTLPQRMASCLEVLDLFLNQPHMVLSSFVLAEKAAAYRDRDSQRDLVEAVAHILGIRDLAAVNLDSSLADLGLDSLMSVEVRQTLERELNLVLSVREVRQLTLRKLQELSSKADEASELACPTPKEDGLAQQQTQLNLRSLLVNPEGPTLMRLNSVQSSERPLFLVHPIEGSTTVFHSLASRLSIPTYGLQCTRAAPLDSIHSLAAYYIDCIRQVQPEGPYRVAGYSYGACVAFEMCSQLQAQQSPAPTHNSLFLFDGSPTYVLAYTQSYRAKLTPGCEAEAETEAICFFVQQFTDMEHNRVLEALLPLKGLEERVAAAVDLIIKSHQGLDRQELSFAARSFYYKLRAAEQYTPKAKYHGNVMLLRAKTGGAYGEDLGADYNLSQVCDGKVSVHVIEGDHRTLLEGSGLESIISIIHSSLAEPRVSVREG

[12] = target: T7, Fatty acid synthase; experiment: FAS thioesterase domain inhibitors, dose response, biochemical, endpoint fluorescence intensity, uHTS hits (AID 624327); format: functional;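 further: fluorescence from hydrolysis of an O-methyl fluorescein acyl ester substrate by the enzyme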
[13] = Luminescence Cell-Based Dose Retest to Confirm Inhibitors of Cancer Stem Cells. [Related pubchem assays (depositor defined):AID2717, AID2721]; format: functional; details: Homo sapiens
[14] = tested on: SN12K1; experiment: cells; format: functional; details: Homo sapiens
[15] = tested on: P388/ADR; experiment: cells; format: functional; details: Mus musculus
[16] = tested on: P388; experiment: cells; format: functional; details: Mus musculus
[17] = target: Paired box protein Pax-8 (Homo sapiens, UniProt Q06710); experiment: inhibitors of PAX8-driven TPO luciferase reporter, dose response, RMG-I cells, cherry-pick (AID 687027); format: functional, cell-based;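 further: luciferase reporter driven by Pax8 target thyroperoxidase promoter measured by SteadyGlo luminescence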
Paired box protein Pax-8, sequence (Q06710 whole entry): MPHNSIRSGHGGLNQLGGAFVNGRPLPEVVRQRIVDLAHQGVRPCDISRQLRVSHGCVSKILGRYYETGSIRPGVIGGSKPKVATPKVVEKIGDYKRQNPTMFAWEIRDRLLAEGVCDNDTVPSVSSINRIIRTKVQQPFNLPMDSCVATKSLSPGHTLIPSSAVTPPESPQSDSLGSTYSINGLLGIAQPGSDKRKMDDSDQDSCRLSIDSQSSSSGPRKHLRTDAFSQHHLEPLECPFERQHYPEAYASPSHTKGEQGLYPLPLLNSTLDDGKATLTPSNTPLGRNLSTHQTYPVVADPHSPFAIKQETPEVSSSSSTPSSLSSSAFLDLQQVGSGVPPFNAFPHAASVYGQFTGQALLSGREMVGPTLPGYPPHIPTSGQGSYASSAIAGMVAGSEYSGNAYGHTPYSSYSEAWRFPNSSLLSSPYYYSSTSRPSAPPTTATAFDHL

[18] = NIH:OVCAR-3 ovarian cancer cell cytotoxicity, dose response, PAX8 inhibitor project, plate reader, dry powder samples (AID 743044); format: functional, cell-based
[19] = cytotoxicity in OVCAR8 ovarian cancer cells, dose response, PAX8 project, cell-based, plate reader, dry powder samples (AID 743197); format: functional; details: OVCAR-8

Structure (SMILES): O=C(O)Cn1nnnc1SCC(=O)Nc1ccc(OC(F)(F)F)cc1
- IC50 [1]: 5.22 µM (active)

Structure (SMILES): CC(C)Oc1ccc(C(CC(=O)O)NC(=O)CSc2nnc[nH]2)cc1 (centres undefined)
- IC50 [1]: 47.4 µM (active)

Structure (SMILES): COc1ccc(NC(=O)CSc2ncnc3c2sc2ccccc23)c(OC)c1
- IC50 [2]: 10.3 µM (not active)

Structure (SMILES): CCCOc1ccc(C(=O)Nc2ccc(N(C)C)cc2)cc1
- IC50 [2]: 3.27 µM (not active)

Structure (SMILES): CCC(C)Nc1ncnc2c1cnn2Cc1ccc(Cl)cc1 (centres undefined)
- IC50 [3]: > 79 µM (inactive)

Structure (SMILES): Oc1ccc(N2CCN(c3ncnc4sc5c(c34)CCC5)CC2)cc1
- IC50 [2]: 4.31 µM (active)

Structure (SMILES): CNc1c([N+](=O)[O-])ccc2c1=NC1(CCCCC1)[N+]=2[O-]
- IC50 [4]: > 50 µM (not active)

Structure (SMILES): COc1ccc(-c2noc(N3CCC(C(=O)Nc4ccc(OC)c(OC)c4)CC3)n2)cc1
- IC50 [5]: > 80 µM (inactive)

Structure (SMILES): O=C(/C=C\c1cn(-c2ccccc2)nc1-c1ccc2c(c1)OCCO2)N1CCOCC1
- IC50 [3]: > 79 µM (inactive)

Structure (SMILES): CCN=C(S)N=Nc1c(O)[nH]c2ccc([N+](=O)[O-])cc12
- AC50 [6]: > 380 µM (inactive)
- IC50 [7]: > 20 µM (inactive)
- EC50 [8]: 56.6 µM (active)
- IC50 [9]: > 66 µM (inactive)
- IC50 [10]: > 66 µM (inactive)

Structure (SMILES): O=[N+]([O-])c1ccc(Sc2nnc(-c3ccccc3)[nH]2)nc1
- IC50 [11]: 10.6 µM (active)
- IC50 [1]: 31.5 µM (active)
- IC50 [12]: 10.9 µM (active)

Structure (SMILES): Cc1ccc(-c2[nH]c(C(=O)NCC3CCCO3)cc3c4ccccc4nc2-3)cc1 (centres undefined)
- IC50 [5]: > 80 µM (inactive)

Structure (SMILES): CCOc1ccc(N2C(=O)CC(SCCN)C2=O)cc1 (centres undefined)
- IC50 [1]: 23.6 µM (active)

Structure (SMILES): COc1cc(OC)cc(C(=O)Nc2ccc(C(=O)Nc3ccccc3OC)cc2)c1
- IC50 [3]: > 79 µM (inactive)

Structure (SMILES): O=C(NNC(=O)C12CC3CC(CC(Br)(C3)C1)C2)c1ccccc1F
- IC50 [5]: > 80 µM (inactive)

Structure (SMILES): O=C(COC(=O)c1cc(O)nc(O)n1)Nc1cccc(Cl)c1
- IC50 [7]: > 20 µM (inactive)

Structure (SMILES): O=C(Nc1cccc(/C=C/c2ccccn2)c1)c1ccc(-n2cncn2)cc1
- IC50 [3]: 38.2 µM (inactive)

Structure (SMILES): COc1cccc(-c2sc3ccccc3c2-c2ccc(OCCN3CCCCC3)cc2)c1
- AC50 [13]: 1.43 µM (active)
- IC50 [7]: > 20 µM (inactive)

Structure (SMILES): COc1cc(/C=C/C(=O)OCC(=O)N2c3ccccc3NC(=O)C2(C)C)cc(OC)c1OC
- IC50 [3]: > 79 µM (inactive)

Structure (SMILES): C[C@H]1Cn2cnc(C(=O)N[C@@H](Cc3c[nH]c4ccccc34)C(=O)OC(C)(C)C)c2C(=O)N1
- IC50 [3]: 18 µM (active)

Structure (SMILES): O=C(CCl)NNC1=Nc2ccc(Cl)cc2SC1
- GI50 [14]: 3.45 µM (inactive)
- GI50 [15]: 0.627 µM (active)
- GI50 [16]: 0.236 µM (active)

Structure (SMILES): C[C@@H]1CN([C@H](C)CO)C(=O)c2cc(NS(=O)(=O)c3ccc(F)cc3)ccc2O[C@@H](C)CCCCO[C@@H]1CN(C)CC1CCCCC1
- AC50 [17]: 13 µM (active)
- AC50 [18]: 44 µM (active)
- AC50 [19]: > 70 µM (inactive)

Structure (SMILES): C[C@@H]1CCCCO[C@H](CN(C)C(=O)Nc2ccc(C(F)(F)F)cc2)[C@@H](C)CN([C@@H](C)CO)C(=O)c2cc(NC(=O)Nc3ccc(C(F)(F)F)cc3)ccc2O1
- AC50 [17]: 2.32 µM (active)
- AC50 [18]: 19.6 µM (active)
- AC50 [19]: 32.8 µM (active)

Structure (SMILES): C/C=C1/C(=O)O[C@]23C=C[C@@H]4C(C(=O)OC)=CO[C@H](O[C@@H]12)[C@@H]43 [PLUMERICIN]
- GI50 [14]: 1.09 µM (active)
- GI50 [15]: 0.0853 µM (active)
- GI50 [16]: 0.105 µM (active)
